{
  "source": "patent US20140308657A1",
  "about": "“SERINE PROTEASE INHIBITOR KAZAL ANTIBODIES” (priority 2010, published 2014)",
  "key": {"prostate tumor cells": {"system": "prostate tumor cells", "details": "cited from earlier work"}, "caspase 3": {"system": "caspase 3", "experiment": "Caspase 3 activity in S2-3 and Huh7T cells", "type": "cell-based, human", "details": "40 hours treatment, caspase 3 kit", "experimental": "FIG. 5B. The activation of caspase 3 (CDCA) in S2-3 cells treated with etoposide but not BFA/CHX/Z-VAD. The S2-3 cell and its parental cell Huh7T were either treated with SPDCA inducer BFA/CHX/ZVAD or CDCA inducer etoposide. The caspase activity was determined after […] treatment by Caspase 3 detection kit (Biovision, Mountain View, Calif.).\nThe same level of apoptosis induced by etoposide in S2-3 cell and Huh7T cell was confirmed by the examination of caspase 3 activity in these cells. After 40 hours treatment, all cells were lysed in […] lysis buffer. […] lysate of each sample was analyzed for caspase 3 activity test using caspase 3 detected kits [Biovision, Mountain View, Calif.]. […] Additionally, the activity of caspase3 was not increased in the cells, in which SPDCA was induced by BFA/CHX, even by double doses [FIG. 5B, B/C/ZX2]."}, "S2-3 cells": {"system": "S2-3 cells", "experiment": "Etoposide induced CDCA, annexin stain, S2-3 cells", "type": "cell-based, human", "details": "S2-3 cell, 40 hours treatment", "experimental": "(§1) FIG. 5A. S2-3 and Huh7T cells were treated with CDCA inducer 400 μM etoposide. After 40 hours, the cells apoptosis was examined in microscope and stained with annexin.\n(§2) 10^5 S2-3 and Huh7T cells were seeded in 60 mm dishes. When the cell reached 90% confluent, CDCA inducer etoposide was added. After 28-40 hours, the cell shrinkage, blebbing and detachment from culture was found in both cell lines. At the same time, the strong fluorescence stain by annexin was also observed in both cell lines [FIG. 5A]. The amount of apoptotic cells in two cell lines was very similar. Around 62% S2-3 cell was stained by annexin, while 58% of Huh7T cell was stained after 40 hours treatment [data not shown]."}, "Huh7T cells": {"system": "Huh7T cells", "experiment": "Etoposide induced CDCA, annexin stain, Huh7T cells", "type": "cell-based, human", "details": "Huh7T cell, 40 hours treatment", "experimental": "as §1, §2"}, "HepG2.215 and G54": {"system": "HepG2.215 and G54", "experiment": "Etoposide induced CDCA in HepG2.215 and G54 cells", "type": "cell-based, human", "details": "HepG2.215 and G54, data not shown", "experimental": "To study the influence of HCV replication upon SPDCA, G54 and Huh7T cells (its parent cell) were seeded in a 60 mm dish. SPDCA was induced by BFA/CHX/Z-VAD. […] The insensitivity of HCV replicon cell to SPDCA was also seen subsequently by annexin staining. Compared to the parental cells, much fewer HCV expressing cells were stained by annexin after being treated with SPDCA inducers BFA/CHX/Z-VAD [FIG. 8C, Annexin]. DNA fragmentation study also support that the HCV expressing cells were more resistant to apoptosis. 70 hours treatment of BFA/CHX/Z-VAD obviously triggered the DNA fragmentation in Huh7T cell, but not in G54 cells [FIG. 8D]. […] In contrast, both HepG2.215 and G54 are sensitive to CDCA induced by etoposide [data not shown]."}, "HCV replicon": {"system": "HCV replicon", "experiment": "HCV replication in HCV replicon cells (Northern blot of HCV RNA)", "type": "cell-based", "details": "10^5 IU/ml overnight", "experimental": "(§3) FIG. 7A-7B. SPIK in the HCV expressing cells. SPIK RNA was detected in the cells with/without HCV replicon as before. HCV RNA was defined by the hybridization of membrane with radio-labeled probe specified HCV.\n(§4) FIG. 7B—HCV replicon cells were incubated with HCV polymerase inhibitor 888 (2 mM) 2 days (Lines 3 & 4 duplicate) and 10^5 IU/ml interferon-a overnight (Lines 5 & 6 duplicate) or left untreated (Line 1 & 2 duplicate). The suppressions of HCV RNA and SPIK RNA then were analyzed by Northern blot as before. The smear detected by HCV probe under the band of HCV RNA probably was the replication form of HCV.\n(§5) Over-expression of SPIK RNA in G54 cells can be abrogated by inhibition of HCV replication. Treatment of HCV replicon cells with either 2 mM of the HCV polymerase inhibitor 888 for two days or 10^5 IU/ml interferon-a overnight has reduced HCV replication by approximately 90% [FIG. 7B, lane 3-6]. This is consistent with previous reports of these antiviral agents (55, 56)."}, "SPIK RNA": {"system": "SPIK RNA", "experiment": "SPIK RNA level in G54 HCV replicon cells after antiviral treatment", "type": "cell-based, human", "details": "10^5 IU/ml overnight", "experimental": "as §3, §4, §5"}},
  "note": "Read-outs that look alike come from different tables or passages of the source. Where a SMILES comes first, the peptide text is derived from it. The star is where a group is joined. Cbz = O=C(OCc1ccccc1)*; CH2F = FC*",
  "data": [
    {"molecule": "NCCc1ccc(S(=O)(=O)F)cc1", "note": "[AEBSF, 4-2-aminoethyl-benzenesulfonyl fluoride]", "values": [
      {"measurement": "block of FADD induced apoptosis", "setting": "prostate tumor cells; combining use of Z-VAD and AEBSF", "result": "completely blocked"}
    ]},
    {"molecule": "CC(NC(=O)C(NC(=O)OCc1ccccc1)C(C)C)C(=O)NC(CC(=O)O)C(=O)CF", "note": "(stereo not drawn) [Z-VAD] (Cbz-Val-Ala-Asp-CH2F; configuration not given here)", "values": [
      {"measurement": "caspase 3 activity", "setting": "caspase 3", "result": "kept unchanged"},
      {"measurement": "block of FADD induced apoptosis", "setting": "prostate tumor cells; alone", "result": "unable to be completely blocked"}
    ]},
    {"molecule": "COc1cc([C@@H]2c3cc4c(cc3[C@@H](O[C@@H]3O[C@@H]5CO[C@@H](C)O[C@H]5[C@H](O)[C@H]3O)[C@H]3COC(=O)[C@H]23)OCO4)cc(OC)c1O", "note": "[etoposide]", "values": [
      {"measurement": "cells stained by annexin", "setting": "S2-3 cells", "result": "Around 62%"},
      {"measurement": "cells stained by annexin", "setting": "Huh7T cells", "result": 58, "unit": "%"},
      {"measurement": "caspase 3 activity", "setting": "caspase 3", "result": "at the same level in both cells"},
      {"measurement": "sensitivity to CDCA", "setting": "HepG2.215 and G54", "result": "sensitive"}
    ]},
    {"molecule": "interferon-a", "values": [
      {"measurement": "reduction of HCV replication", "setting": "HCV replicon", "result": "approximately 90%"},
      {"measurement": "SPIK level", "setting": "SPIK RNA", "result": "correspondingly decreased with HCV RNA"}
    ]}
  ]
}
